The source of these data is patent US20250059164A1, “IRAK DEGRADERS AND USES THEREOF” (Kymera Therapeutics, Inc., priority 2023, published 2025).

The term bioavailability denotes dose-corrected exposure relative to a reference, in per cent. In general, DC50 refers to the midpoint of the concentration-degradation curve.

Tested on in the first data set: not listed separately
The data set is described as follows: Rodent pharmacokinetics (rat PK). In kind it is in vivo. To be noted: po, dosed intravenously or orally by gavage, plasma, read-out: F % (bioavailability). The gist of the method: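 F % is reported as a letter code: A for ≥5%, B for ≤5%. It was derived from rat plasma profiles after intravenous or oral gavage dosing, with jugular vein sampling from predose to 24 h (5 min point for IV only).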
Take `COc1ccc2c(c1N1CC3(CCN(C[C@H]4CC[C@H](c5nc6cc(C(C)(C)O)c(NC(=O)c7cncc(C#N)c7)cc6o5)CC4)CC3(F)F)C1)n(C)c(=O)n2C1CCC(=O)NC1=O` (stereo partly drawn) [I-413]: the bioavailability was not above 5%.

On to `COc1ccc2c(c1N1CC3(CCN(C[C@H]4CC[C@H](c5nc6cc(C(C)(C)O)c(NC(=O)c7cccc(C(F)(F)F)n7)cc6s5)CC4)CC3(F)F)C1)n(C)c(=O)n2C1CCC(=O)NC1=O` (stereo partly drawn) [I-414], for which the bioavailability was not above 5%.

As to `COc1ccc2c(c1N1CC3(CCN(C[C@H]4CC[C@H](c5nc6cc(C(C)(C)O)c(NC(=O)c7cccc(C(F)(F)F)n7)cc6o5)CC4)CC3(F)F)C1)n(C)c(=O)n2C1CCC(=O)NC1=O` (stereo partly drawn) [I-415], the bioavailability was not above 5%.

The target in the next data set is T1, IRAK4 (Homo sapiens, UniProt Q9NWZ3).
T1 construct: endogenous in cells; host or cells: OCI-LY10
T1 sequence (Q9NWZ3 1-460): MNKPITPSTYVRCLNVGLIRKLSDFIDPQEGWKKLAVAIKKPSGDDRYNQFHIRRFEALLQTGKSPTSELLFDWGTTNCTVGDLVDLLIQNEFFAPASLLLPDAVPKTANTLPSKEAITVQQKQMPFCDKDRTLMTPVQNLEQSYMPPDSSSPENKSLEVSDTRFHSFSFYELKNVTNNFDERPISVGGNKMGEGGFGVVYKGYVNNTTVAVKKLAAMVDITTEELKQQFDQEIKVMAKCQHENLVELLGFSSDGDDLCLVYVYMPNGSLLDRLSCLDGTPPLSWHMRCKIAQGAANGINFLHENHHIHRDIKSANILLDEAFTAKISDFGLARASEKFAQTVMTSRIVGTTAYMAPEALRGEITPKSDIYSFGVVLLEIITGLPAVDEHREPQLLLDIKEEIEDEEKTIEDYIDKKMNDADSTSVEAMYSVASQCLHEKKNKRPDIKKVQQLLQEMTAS
The data set is described as follows: IRAK4 MSD degradation in OCI-LY10. The format is cell-based. To be noted: OCI-LY10 cells, 24 hrs, Meso Scale Discovery. Put shortly: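 Remaining IRAK4 protein measured by Meso Scale Discovery electrochemiluminescence sandwich assay on lysates of OCI-LY10 cells. Cells were exposed for 4 to 24 hours (37° C., 5% CO2) to eight 1:3-diluted concentrations starting at 1 to 10 μM. DC50 derived by three-parameter logistic fitting.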
As to `COc1ccc2c(c1N1CC3(CCN(C[C@H]4CC[C@H](c5nc6cc(C(C)(C)O)c(NC(=O)c7cncc(C#N)c7)cc6o5)CC4)CC3(F)F)C1)n(C)c(=O)n2C1CCC(=O)NC1=O` (stereo partly drawn) [I-413], the DC50 was more than 200 nM.

Turning to `COc1ccc2c(c1N1CC3(CCN(C[C@H]4CC[C@H](c5nc6cc(C(C)(C)O)c(NC(=O)c7cccc(C(F)(F)F)n7)cc6s5)CC4)CC3(F)F)C1)n(C)c(=O)n2C1CCC(=O)NC1=O` (stereo partly drawn) [I-414], the DC50 was more than 200 nM.

Turning to `COc1ccc2c(c1N1CC3(CCN(C[C@H]4CC[C@H](c5nc6cc(C(C)(C)O)c(NC(=O)c7cccc(C(F)(F)F)n7)cc6o5)CC4)CC3(F)F)C1)n(C)c(=O)n2C1CCC(=O)NC1=O` (stereo partly drawn) [I-415], the DC50 is less than 10 nM.
